In patent US20060269978A1, “Method and device for monitoring platelet function” (priority 2005, published 2006):

Test system: platelet function
Experiment: Platelet Reactivity Test (PRT) on fingerprick whole blood of volunteers before and after taking aspirin
Assay type: in vivo
Settings: human volunteers after taking aspirin, single-passageway cartridge with spring, most volunteers
Description: The PRT test is used to activate platelet gel formations using a small (20 microliter) whole blood sample to help identify proper platelet function in the absence of platelet drug therapy and to identify inhibited platelet function in the presence of platelet drug therapy. The test is performed by running a small quantity of blood through a channel restriction that will induce the formation of platelet gels and trap them in a focused area similar to the way platelets are activated and focused in the body.
In use, the cartridge is secured in instrument 400 and preheated for three to five minutes at 33C. The cartridge is then removed from the instrument 400 and 40 μl of blood previously taken from a subject by a pinprick is placed in capillary tube 370, which is already bonded to the capillary tube port 200. The cartridge 150 is then placed back in the instrument 400. The instrument 400 is maintained at 33C. In a preferred embodiment, the cartridge 150 has a bar code that is read by the instrument 400. The instrument 400 will reject the cartridge 150 if the cartridge has been out of the instrument for more than two minutes after the preheating step.
[…] A gel forms and the pumps 350, 351 operate until an end point is reached. […]

CC(=O)Oc1ccccc1C(=O)O [aspirin]
PRT (platelet reactivity time): greater than 150 seconds
